Measured values from PMC12750888, “Design, synthesis, and anti-Toxoplasma gondii evaluation of β-carboline derivatives” (Parasites & Vectors, 2025).
pIC50: −log10 of the molar value.

Legend:
[1] = system: T. gondii RH strain tachyzoites; test: In vitro anti-invasion assay (qPCR; RH-GFP fluorescence microscopy); type: cell-based, Toxoplasma gondii; details: for pIC50: Toxoplasma gondii, RH strain, Vero cells, 2 h after infection, qPCR, read-out: IC50, inhibition of T. gondii invasion; for number of parasitophorous vacuoles (PVs) invaded by RH-GFP tachyzoites: fluorescence microscopy, compared with control and positive control groups
Procedure: Vero cells were seeded onto 6-well plates and cultured with DMEM supplemented with 10% FBS to obtain cell monolayers. The medium was replaced with fresh DMEM (1% FBS) containing NBZ023 or NBZ035 (0.24–30 μM), pyrimethamine (0.4 μM) or no drugs (as a control), and tachyzoites (2 × 10^6 per well) were then inoculated into the confluent Vero cell monolayers. At 2 h after infection, the cell monolayers were washed twice with PBS to remove extracellular tachyzoites and then total genomic DNA from the cell samples was isolated with the DNAiso reagent (Takara). The anti-invasion capabilities of NBZ023 and NBZ035 were determined by qPCR. The T. gondii RH strain with green fluorescence was seeded as described above. After infection, the cells were incubated for 36 h to fully observe the infection status of the parasites via fluorescence microscopy.

T. gondii tachyzoites = test: Ultrastructural analysis by transmission electron microscopy; type: cell-based, Toxoplasma gondii; details: NBZ023 2.85 μM, NBZ035 1.6 μM
Procedure: The effects of the incubation with the drugs on the ultrastructure of T. gondii tachyzoites were observed via transmission electron microscopy (TEM). For TEM analysis, Vero cells were grown to confluence in T25 flasks and infected with 2 × 10^6 T. gondii tachyzoites for 8 h. After NBZ023 (2.85 μM) or NBZ035 (1.6 μM) was added, the cells were cultured for 8 or 24 h, then digested with TrypLE Express for 2 min, and washed twice with PBS. The detailed experimental procedures were described in a previous study.

[2] = system: T. gondii Type I tachyzoites; test: In vivo efficacy against acute T. gondii infection in mice (tissue parasite burden by qPCR); set-up: species or system BALB/c mice; details: acute RH infection, once daily for 7 days, compared with parasite control, NBZ compounds 10 mg/kg BW intraperitoneally, positive control orally
Procedure: Female BALB/c mice (18-20 g, 6-8 weeks old) were divided into 4 groups consisting of 6 mice each, and each mouse was injected intraperitoneally with 2 × 10^3 Type I tachyzoites. Four hours after inoculation, the treatments were administered once per day for 7 consecutive days. NBZ023 and NBZ035 were dissolved in isotonic saline containing 5% ethanol and 5% Cremophor EL to a concentration of 1 mg/mL for in vivo experiments. Sulfadiazine (10 mg/mL, Sigma, USA), pyrimethamine (5 mg/mL, Sigma, USA), and folinic acid (1.5 mg/mL, Sigma, USA) were suspended in isotonic saline containing 1% CMC-Na and used as positive drugs in in vivo experiments. […] After the mice were euthanized on the eighth day, the brains, livers, and spleens were collected. DNA was isolated with a DNA purification kit ([…], Omega Bio-Tek, USA). The in vivo efficacy of the compounds against T. gondii was evaluated via quantitative real-time PCR with DNA from the brain, liver, and spleen. The numbers of parasites in the tissue samples were determined using standard curves constructed using known numbers of tachyzoites, as previously described.

T. gondii PRU strain = test: In vitro activity against PRU strain tachyzoites (PV counts, plaques); type: cell-based, Toxoplasma gondii; details: NBZ023 2.85 or 30 μM, NBZ035 1.6 or 30 μM; 24, 48, 72 h
Procedure: Vero cells were infected for 8 h with extracellular type II PRU strain tachyzoites (1.5 × 10^5), which were isolated from a mouse brain, and then the medium containing compounds or 0.1% DMSO (as a control) was added. After 24, 48, and 72 h of incubation, the numbers of PVs were assessed via […] under a 40 × objective lens, and at least 20 random fields per well were counted.

[3] = system: PRU strain bradyzoite cysts; test: In vitro PRU bradyzoite cyst formation (DBA staining); type: cell-based, Toxoplasma gondii; details: PRU cysts in Vero cells, 48 h; NBZ023 2.85 or 30 μM, NBZ035 1.6 or 30 μM
Procedure: The conditions for inducing the formation of cysts in vitro by the type II PRU strain were described in a previously published study. After the induction of cyst formation, the alkaline medium was removed and replaced with a medium containing NBZ023, NBZ035, or 0.1% DMSO as the control. After 48 h, the DMEM was removed, and the PRU strain bradyzoite cysts were stained with Dolichos biflorus agglutinin (DBA) to assess the treatment effects.The stained cysts were observed using light microscopy under a 40 × objective lens, with at least 3 random fields per well counted.

Vero cells = test: Cell viability assay (CCK-8) on Vero cells; type: cell-based, African green monkey; details: 24 h; for Cytotoxicity: CCK-8, tested up to 30 µM; for inhibition at 30 µM: Chlorocebus sabaeus, CCK-8, read-out: Inhibition rate of Vero cell at 30 μM
Procedure: (§1) African green monkey kidney (Vero) cells were cultured in Dulbecco’s modified Eagle’s medium (DMEM) supplemented with 100 U/mL penicillin, 100 μg/mL streptomycin, 1% nonessential amino acids (NEAAs), 1% GlutaMAX and 10% fetal bovine serum (FBS) at 37 °C in an atmosphere of 5% CO2. […] DMEM without a drug was used as a control. After 24 h of treatment, Cell Counting Kit-8 (CCK-8, CA1210, Solarbio) was used to determine cell viability at 450 nm via a Multiskan GO instrument.

[4] = Cell viability assay (CCK-8) on Vero cells; type: cell-based, African green monkey; details: African green monkey, CCK-8, read-out: half-maximal cytotoxic concentration (CC50) against host cells
Procedure: as §1

[5] = system: T. gondii RH strain tachyzoites; test: In vitro anti-proliferation assay (qPCR of 529-bp repeat); type: cell-based, Toxoplasma gondii; details: for pIC50: Toxoplasma gondii, RH strain in Vero cells, 24 h treatment, qPCR, read-out: IC50, inhibition of T. gondii proliferation
Procedure: The antiproliferative effects of NBZ023 and NBZ035 on T. gondii were determined via qPCR, which was performed by using a QuantStudio 3 Flex real-time PCR system (Life Technologies). Cells were infected with tachyzoites (2 × 10^5 per well) for 6 h, then treated with NBZ023, NBZ035 (0.24‒30 μM) or pyrimethamine (0.4 μM) for 24 h, and washed twice with PBS. Infected or uninfected cells that were cultured with DMEM (1% FBS) were used as the parasite or the host cell control group, respectively. Total genomic DNA from the cell samples was isolated with the DNAiso reagent (Takara), and the levels of the 529-bp repeat sequence of T. gondii were measured via qPCR as before.

T. gondii RH tachyzoites = test: Screening for anti-T. gondii activity in vitro (plaque and qPCR assays); type: cell-based, Toxoplasma gondii; details: 30 μM screening
Procedure: The anti-T. gondii activity of compounds NBZ001‒037 was examined via RT-PCR. Confluent Vero cells in 6-well plates were infected with 2 × 10^5 T. gondii RH tachyzoites per well, incubated for 6 h, and then washed twice with PBS to remove extracellular tachyzoites. The cell monolayers were incubated with DMEM (1% FBS) containing various concentrations of NBZ001‒037 for 24 h. Total genomic DNA from each sample was isolated with the DNAiso reagent (Takara), and the levels of the 529-bp repeat element of T. gondii were measured by qPCR. A plaque assay was used to evaluate the activity of the compounds. The detailed experimental procedures were described in previous studies.

| SMILES | pIC50 [1] | number of parasitophorous vacuoles (PVs) invaded by RH-GFP tachyzoites [1] | ultrastructural change of T. gondii tachyzoites (TEM) (T. gondii tachyzoites; 24 h of treatment) | ultrastructural change of T. gondii tachyzoites (TEM) (T. gondii tachyzoites; incubation 8 h) | reduction of mean T. gondii burden in the liver [2] [%] | reduction of mean numbers of T. gondii parasites in the brain [2] [%] | reduction of mean numbers of T. gondii parasites in the spleen [2] [%] | proliferation ability of the T. gondii PRU strain (parasites per PV, number of PVs) (T. gondii PRU strain) | inhibition of the formation of T. gondii cysts compared with control [3] | Cytotoxicity (Vero cells) [µM] | inhibition at 30 µM (Vero cells) [%] | CC50 at 24 h [4] [µM] | pIC50 [5] | selectivity index (SI) ([5]; CC50 host cells / IC50 proliferation) | increase in potency compared with nonaromatic heterocycles (NBZ016–018) (T. gondii RH tachyzoites) |
| --- | --- | --- | --- | --- | --- | --- | --- | --- | --- | --- | --- | --- | --- | --- | --- |
| O=C(Nc1ccccc1)c1ccc2[nH]c3c4[n+](ccc3c2c1)-c1ccccc1C4=O [NBZ035] | 5.95 | significantly reduced | the parasite ruptured, and severe cavitation occurred | cracks in the somatic cytoplasm of the parasite | 88.52 | 93.21 | 89.40 | significantly (P ≤ 0.05) inhibited | twofold | > 30.00 | 3.27 | 80.6 | 5.80 |  |  |
| O=C(Nc1ccccc1)c1ccc2[nH]c3c(C(=O)c4cccc(Br)c4)nccc3c2c1 [NBZ023] | 5.33 | significantly reduced | the parasite ruptured, and severe cavitation occurred | cracks in the somatic cytoplasm of the parasite | 56.42 | 70.72 | 68.90 | significantly (P ≤ 0.05) inhibited | twofold | > 30.00 | 4.56 | 883 | 5.55 | 309.8 | 2- to 3 fold |
